Measured values: ChEMBL document CHEMBL1153037, “Synthesis and structure-activity relationship studies of cytotoxic anhydrovinblastine amide derivatives” (J Nat Prod, 2009)
pIC50: −log10 of the molar value. Where a name gives a salt, the structure may show the parent alone.

Tests used:
[1] = system: HeLa; test: Cytotoxicity against human HeLa cells by sulforhodamine B assay; assay type: functional, cell-based
[2] = system: A549; test: Cytotoxicity against human A549 cells by sulforhodamine B assay; assay type: functional, cell-based
[3] = system: CCRF S-180; test: Antitumor activity against mouse S180 cells xenografted in Kunming mouse at 10 mg/kg, iv administered on day 1 and 4; assay type: functional; details: for inhibition in vivo at 10 mg/kg: Mus musculus
[4] = system: CCRF S-180; test: Toxicity against mouse S180 cells xenografted in Kunming mouse at 10 mg/kg, iv administered on day 1 and 4; assay type: functional, organism-based; design: dose 10 mg/kg
[5] = system: CCRF S-180; test: Antitumor activity against mouse S180 cells xenografted in Kunming mouse at 20 mg/kg, iv administered as single dose on day 1; assay type: functional; details: CCRF S-180, 24 h

For CCC1=C[C@@H]2CN(CCc3c([nH]c4ccccc34)[C@@](C(=O)OC)(c3cc4c(cc3OC)N(C)[C@H]3[C@@](O)(CNC(=O)c5ccncc5)[C@H](OC(C)=O)[C@]5(CC)C=CCN6CC[C@]43[C@@H]65)C2)C1, the pIC50 [1] was 7.62 and the pIC50 ([2]; Homo sapiens, A549) was 7.57.

CCC1=C[C@@H]2CN(CCc3c([nH]c4ccccc34)[C@@](C(=O)OC)(c3cc4c(cc3OC)N(C)[C@H]3[C@@](O)(CNC(=O)C(C)C)[C@H](OC(C)=O)[C@]5(CC)C=CCN6CC[C@]43[C@@H]65)C2)C1 gave a pIC50 [1] of 6.88 and a pIC50 ([2]; Homo sapiens, A549) of 7.00.

Work on CCC1=C[C@@H]2CN(CCc3c([nH]c4ccccc34)[C@@](C(=O)OC)(c3cc4c(cc3OC)N(C)[C@H]3[C@@](O)(CNC(=O)c5ccccc5)[C@H](OC(C)=O)[C@]5(CC)C=CCN6CC[C@]43[C@@H]65)C2)C1 yielded a pIC50 [1] of 7.59 and a pIC50 ([2]; Homo sapiens, A549) of 7.57.

For CCC1=C[C@@H]2CN(C1)Cc1c([nH]c3ccccc13)[C@@](C(=O)OC)(c1cc3c(cc1OC)N(C)[C@H]1[C@@](O)(C(=O)OC)[C@H](OC(C)=O)[C@]4(CC)C=CCN5CC[C@]31[C@@H]54)C2 [VINORELBINE TARTRATE], the inhibition in vivo at 10 mg/kg ([3]; CCRF S-180, iv, 24 h) was 62.5%.

With CCC(=O)NC[C@@]1(O)[C@H](OC(C)=O)[C@]2(CC)C=CCN3CC[C@@]4(c5cc([C@@]6(C(=O)OC)C[C@@H]7C=C(CC)CN(CCc8c6[nH]c6ccccc86)C7)c(OC)cc5N(C)[C@@H]14)[C@@H]32 the pIC50 [1] was 7.24, the Activity [4] was “Not toxic” and the inhibition in vivo at 20 mg/kg [5] was 90%. It also gave an inhibition in vivo at 10 mg/kg ([3]; CCRF S-180, 24 h) of 84.4% and a pIC50 ([2]; Homo sapiens, A549) of 7.37.

For CCC1=C[C@@H]2CN(C1)Cc1c([nH]c3ccccc13)[C@@](C(=O)OC)(c1cc3c(cc1OC)N(C)[C@H]1[C@@](O)(C(=O)OC)[C@H](OC(C)=O)[C@]4(CC)C=CCN5CC[C@]31[C@@H]54)C2, the Activity [4] was “Not toxic”.

CCC1=C[C@@H]2CN(CCc3c([nH]c4ccccc34)[C@@](C(=O)OC)(c3cc4c(cc3OC)N(C)[C@H]3[C@@](O)(CNC(=O)CC(C)(C)C)[C@H](OC(C)=O)[C@]5(CC)C=CCN6CC[C@]43[C@@H]65)C2)C1 gave a pIC50 [1] of 7.03 and a pIC50 ([2]; Homo sapiens, A549) of 6.94.

Compound CCC1=C[C@@H]2CN(CCc3c([nH]c4ccccc34)[C@@](C(=O)OC)(c3cc4c(cc3OC)N(C)[C@H]3[C@@](O)(CNC(=O)C5CCC5)[C@H](OC(C)=O)[C@]5(CC)C=CCN6CC[C@]43[C@@H]65)C2)C1 has a pIC50 [1] of 7.17 and a pIC50 ([2]; Homo sapiens, A549) of 7.47.

Work on CCC1=C[C@@H]2CN(CCc3c([nH]c4ccccc34)[C@@](C(=O)OC)(c3cc4c(cc3OC)N(C)[C@H]3[C@@](O)(CNC(=O)c5ccccc5Cl)[C@H](OC(C)=O)[C@]5(CC)C=CCN6CC[C@]43[C@@H]65)C2)C1 yielded a pIC50 [1] of 7.05 and a pIC50 ([2]; Homo sapiens, A549) of 7.62.

For CCC1=C[C@@H]2CN(CCc3c([nH]c4ccccc34)[C@@](C(=O)OC)(c3cc4c(cc3OC)N(C)[C@H]3[C@@](O)(CNC(=O)c5ccc(F)cc5)[C@H](OC(C)=O)[C@]5(CC)C=CCN6CC[C@]43[C@@H]65)C2)C1, the pIC50 [1] was 7.60 and the pIC50 ([2]; Homo sapiens, A549) was 7.70.

CCC1=C[C@@H]2CN(CCc3c([nH]c4ccccc34)[C@@](C(=O)OC)(c3cc4c(cc3OC)N(C)[C@H]3[C@@](O)(CNC(C)=O)[C@H](OC(C)=O)[C@]5(CC)C=CCN6CC[C@]43[C@@H]65)C2)C1 gave a pIC50 [1] of 6.35 and a pIC50 ([2]; Homo sapiens, A549) of 7.66.

With CCC1=C[C@@H]2CN(C1)Cc1c([nH]c3ccccc13)[C@@](C(=O)OC)(c1cc3c(cc1OC)N(C)[C@H]1[C@@](O)(C(=O)OC)[C@H](OC(C)=O)[C@]4(CC)C=CCN5CC[C@]31[C@@H]54)C2 [VINORELBINE] the “inhibition (INH)” value [3] was 69.4% and the pIC50 ([2]; a549) was 7.52.

In the case of CCC1=C[C@@H]2CN(CCc3c([nH]c4ccccc34)[C@@](C(=O)OC)(c3cc4c(cc3OC)N(C)[C@H]3[C@@](O)(CNC(=O)C5CC5)[C@H](OC(C)=O)[C@]5(CC)C=CCN6CC[C@]43[C@@H]65)C2)C1, the pIC50 [1] was 7.46, the inhibition in vivo at 20 mg/kg [5] was 88.8% and the inhibition in vivo at 10 mg/kg ([3]; CCRF S-180, 24 h) was 81.3%. It also gave a pIC50 ([2]; Homo sapiens, A549) of 7.59.

CCC1=C[C@@H]2CN(CCc3c([nH]c4ccccc34)[C@@](C(=O)OC)(c3cc4c(cc3OC)N(C)[C@H]3[C@@](O)(CNC(=O)c5ccccc5OC)[C@H](OC(C)=O)[C@]5(CC)C=CCN6CC[C@]43[C@@H]65)C2)C1 showed a pIC50 [1] of 7.68 and a pIC50 ([2]; Homo sapiens, A549) of 8.00.

With CCC1=C[C@@H]2CN(CCc3c([nH]c4ccccc34)[C@@](C(=O)OC)(c3cc4c(cc3OC)N(C)[C@H]3[C@@](O)(CNC(=O)Cc5ccccc5)[C@H](OC(C)=O)[C@]5(CC)C=CCN6CC[C@]43[C@@H]65)C2)C1 the pIC50 [1] was 7.11 and the pIC50 ([2]; Homo sapiens, A549) was 7.41.

CCC1=C[C@@H]2CN(CCc3c([nH]c4ccccc34)[C@@](C(=O)OC)(c3cc4c(cc3OC)N(C)[C@H]3[C@@](O)(CNC(=O)CC(C)C)[C@H](OC(C)=O)[C@]5(CC)C=CCN6CC[C@]43[C@@H]65)C2)C1 showed a pIC50 [1] of 7.07 and a pIC50 ([2]; Homo sapiens, A549) of 6.82.

In the case of CCCC(=O)NC[C@@]1(O)[C@H](OC(C)=O)[C@]2(CC)C=CCN3CC[C@@]4(c5cc([C@@]6(C(=O)OC)C[C@@H]7C=C(CC)CN(CCc8c6[nH]c6ccccc86)C7)c(OC)cc5N(C)[C@@H]14)[C@@H]32, the pIC50 [1] was 7.01 and the pIC50 ([2]; Homo sapiens, A549) was 7.02.

With CCC1=C[C@@H]2CN(CCc3c([nH]c4ccccc34)[C@@](C(=O)OC)(c3cc4c(cc3OC)N(C)[C@H]3[C@@](O)(CNC(=O)c5ccc([N+](=O)[O-])cc5)[C@H](OC(C)=O)[C@]5(CC)C=CCN6CC[C@]43[C@@H]65)C2)C1 the pIC50 [1] was 7.64 and the pIC50 ([2]; Homo sapiens, A549) was 7.48.

Compound CCC1=C[C@@H]2CN(CCc3c([nH]c4ccccc34)[C@@](C(=O)OC)(c3cc4c(cc3OC)N(C)[C@H]3[C@@](O)(CNC(=O)C(C)(C)C)[C@H](OC(C)=O)[C@]5(CC)C=CCN6CC[C@]43[C@@H]65)C2)C1 has a pIC50 [1] of 7.21 and a pIC50 ([2]; Homo sapiens, A549) of 7.02.

CCC1=C[C@@H]2CN(CCc3c([nH]c4ccccc34)[C@@](C(=O)OC)(c3cc4c(cc3OC)N(C)[C@H]3[C@@](O)(CNC(=O)c5cccc(Cl)c5)[C@H](OC(C)=O)[C@]5(CC)C=CCN6CC[C@]43[C@@H]65)C2)C1 was tested, and the pIC50 [1] was 7.17 and the pIC50 ([2]; Homo sapiens, A549) was 7.59.

With CCC1=C[C@@H]2CN(CCc3c([nH]c4ccccc34)[C@@](C(=O)OC)(c3cc4c(cc3OC)N(C)[C@H]3[C@@](O)(CNC(=O)c5ccc(Cl)cc5)[C@H](OC(C)=O)[C@]5(CC)C=CCN6CC[C@]43[C@@H]65)C2)C1 the pIC50 [1] was 7.33 and the pIC50 ([2]; Homo sapiens, A549) was 7.60.

With CCC1=C[C@@H]2CN(CCc3c([nH]c4ccccc34)[C@@](C(=O)OC)(c3cc4c(cc3OC)N(C)[C@H]3[C@@](O)(CNC(=O)c5ccc(OC)cc5)[C@H](OC(C)=O)[C@]5(CC)C=CCN6CC[C@]43[C@@H]65)C2)C1 the pIC50 [1] was 6.86 and the pIC50 ([2]; Homo sapiens, A549) was 7.52.

In the case of CCC1=C[C@@H]2CN(CCc3c([nH]c4ccccc34)[C@@](C(=O)OC)(c3cc4c(cc3OC)N(C)[C@H]3[C@@](O)(CNC(=O)c5ccc6c(c5)OCO6)[C@H](OC(C)=O)[C@]5(CC)C=CCN6CC[C@]43[C@@H]65)C2)C1, the pIC50 [1] was 7.48, the Activity [4] was “Not toxic” and the inhibition in vivo at 20 mg/kg [5] was 66.3%. The inhibition in vivo at 10 mg/kg ([3]; CCRF S-180, 24 h) was 58.1% and the pIC50 ([2]; Homo sapiens, A549) was 8.10.
